According to ChEMBL document CHEMBL3632623, “Discovery of Imidazo[1,2-α][1,8]naphthyridine Derivatives as Potential HCV Entry Inhibitor” (ACS Med Chem Lett, 2015):
The source made the active and inactive calls. The rule behind the calls is not given here.

How the values were obtained:
Hepatitis C virus [1] = experiment: Antiviral activity against HCV genotype 1b Con-1 infected in human HuH7 cells after 72 hrs by luciferase based replicon assay; assay type: functional, organism-based; conditions: Hepacivirus hominis; isolate Con1; Huh-7
[2] = Cytotoxicity against human Huh7.5.1 cells; assay type: cell-based, Huh-7
Hepatitis C virus [3] = experiment: Antiviral activity against HCV genotype 2a JFH-1 infected in human Huh7.5.1 cells after 2 hrs by luciferase assay; assay type: functional, organism-based, Hepacivirus hominis; conditions: JFH-1, Huh-7, 2 h
Hepatitis C virus [4] = experiment: Antiviral activity against HCV genotype 2a JFH-1 in human Huh7.5.1 cells assessed as reduction of viral entry up to 3 hrs by luciferase assay; assay type: functional, organism-based; conditions: Hepacivirus hominis, Huh-7
Hepatitis C virus [5] = experiment: Antiviral activity against HCV genotype 2a JFH-1 in human Huh7.5.1 cells assessed as inhibition of viral attachment to heparan sulfate proteoglycans at 10 nM at 4 degC by luciferase assay; assay type: functional, organism-based; conditions: Hepacivirus hominis, Huh-7
Hepatitis C virus [6] = experiment: Ratio of RO8191 EC50 to compound EC50 for HCV genotype 2a JFH-1 infected in human Huh7.5.1 cells after 2 hrs by luciferase assay; assay type: functional, Hepacivirus hominis, Huh-7
Hepatitis C virus [7] = experiment: Antiviral activity against HCV; assay type: functional, organism-based, Hepacivirus hominis
Huh-7 [8] = experiment: Activation of ISRE reporter gene in human Huh7.5.1 cells at 2 to 50 uM after 24 hrs by luciferase assay; assay type: functional, cell-based
Huh-7 [9] = experiment: Activation of ISRE reporter gene in human HuH7 cells at 2 to 50 uM after 24 hrs by luciferase assay; assay type: functional, cell-based
HepG2 = experiment: Activation of ISRE reporter gene in human HepG2 cells at 2 to 50 uM after 24 hrs by luciferase assay; assay type: functional, cell-based
Vero = experiment: Activation of ISRE reporter gene in African green monkey Vero cells at 4 to 100 uM after 24 hrs by luciferase assay; assay type: functional, cell-based; conditions: Chlorocebus sabaeus
[10] = Tmax in Wistar rat at 100 mg/kg, po; assay type: ADME, organism-based; conditions: in vivo
[11] = AUC ( 0 to 24 hrs) in Wistar rat at 100 mg/kg, po; assay type: ADME, organism-based; parameters: time < 24 hr, dose 100 mg/kg, route oral; conditions: in vivo
[12] = tested on: Human immunodeficiency virus; experiment: Antiviral activity against HIV infected in human Ghost cells; assay type: functional, organism-based; conditions: Human immunodeficiency virus 1, Ghost
[13] = Cytotoxicity against human RD cells; assay type: cell-based
[14] = Cytotoxicity against human HuH7 cells; assay type: cell-based, Huh-7
Enterovirus A71 = experiment: Antiviral activity against EV71 infected in human RD cells; assay type: functional, organism-based; conditions: Enterovirus A
[15] = Cmax in Wistar rat at 100 mg/kg, po; assay type: ADME, organism-based; parameters: dose 100 mg/kg, route oral; conditions: in vivo
Hepatitis C virus [16] = experiment: Antiviral activity against HCV genotype 2a JFH-1 in human Huh7.5.1 cells assessed as inhibition of post-attachment infection phase at 0.2 uM after 3 days by luciferase assay; assay type: functional, Hepacivirus hominis; conditions: JFH-1, Huh-7, 72 h
[17] = Elimination half life in Wistar rat at 100 mg/kg, po; assay type: ADME, organism-based; conditions: in vivo, read-out: beta t1/2 (converted)
Hepatitis B virus = experiment: Antiviral activity against HBV infected in human HepAD38 cells; assay type: functional, organism-based
[18] = tested on: Middle East respiratory syndrome-related coronavirus; experiment: Antiviral activity against MERS infected in human HuH7 cells; assay type: functional, cell-based; conditions: Huh-7
[19] = Cytotoxicity against human GHOST cells; assay type: cell-based
[20] = Cytotoxicity against human HepAD38 cells; assay type: cell-based
[21] = AUC ( 0 to infinity) in Wistar rat at 100 mg/kg, po; assay type: ADME, organism-based; parameters: dose 100 mg/kg, route oral, time infinity; conditions: in vivo
Hepatitis C virus [22] = experiment: Antiviral activity against HCV genotype 2a JFH-1 in human Huh7.5.1 cells assessed as inhibition of viral attachment to heparan sulfate proteoglycans at 0.2 uM at 4 degC by luciferase assay; assay type: functional, organism-based; conditions: Hepacivirus hominis, Huh-7

In the case of `NC1CCN(C(=O)c2cn3c(ccc4c(C(F)(F)F)cc(C(F)(F)F)nc43)n2)CC1`, the Activity (Hepatitis C virus [1]) is reported as “inactive”, the CC50 [2] is reported as over 25 µM and the EC50 (Hepatitis C virus [3]) is reported as 0.102 µM.
With `O=C1CN(C(=O)c2cn3c(ccc4c(C(F)(F)F)cc(C(F)(F)F)nc43)n2)CCN1` the CC50 [2] was over 25 µM and the EC50 (Hepatitis C virus [3]) was 12.5 µM.
For `O=C(c1cn2c(ccc3c(C(F)(F)F)cc(C(F)(F)F)nc32)n1)N1CCC(O)CC1`, the CC50 [2] was over 25 µM and the EC50 (Hepatitis C virus [3]) was over 20 µM.
Molecule `Nc1cccc(NC(=O)c2cn3c(ccc4c(C(F)(F)F)cc(C(F)(F)F)nc43)n2)c1` has a CC50 [2] of over 25 µM and an EC50 (Hepatitis C virus [3]) of over 20 µM.
Work on `NCCCCNC(=O)c1cn2c(ccc3c(C(F)(F)F)cc(C(F)(F)F)nc32)n1` yielded a CC50 [2] of over 25 µM and an EC50 (Hepatitis C virus [3]) of 1.13 µM.
With `CN1CCN(C(=O)c2cn3c(ccc4c(C(F)(F)F)cc(C(F)(F)F)nc43)n2)CC1` the Activity (Hepatitis C virus [1]) was “inactive”, the CC50 [2] was over 25 µM and the EC50 (Hepatitis C virus [3]) was 0.159 µM.
With `CN(C)CCNC(=O)c1cn2c(ccc3c(C(F)(F)F)cc(C(F)(F)F)nc32)n1` the Activity (Hepatitis C virus [1]) was “inactive”, the CC50 [2] was over 25 µM and the EC50 (Hepatitis C virus [3]) was 0.069 µM.
Molecule `CCOC(=O)[C@@H](CCCCN)NC(=O)c1cn2c(ccc3c(C(F)(F)F)cc(C(F)(F)F)nc32)n1` has a CC50 [2] of over 25 µM and an EC50 (Hepatitis C virus [3]) of 0.14 µM.
In the case of `CO/C1=C\C(C)=C\[C@@H](C)[C@@H](O)[C@@H](C)C/C(C)=C/C=C/[C@H](OC)[C@@H]([C@@H](C)[C@@H](O)[C@H](C)[C@@]2(O)C[C@@H](O)[C@H](C)[C@@H](C(C)C)O2)OC1=O`, the inhibition (Hepatitis C virus [4]) is reported as “Active” and the inhibition (Hepatitis C virus [5]) is reported as “inactive”.
In the case of `CC1CN(C(=O)c2cn3c(ccc4c(C(F)(F)F)cc(C(F)(F)F)nc43)n2)CCN1` (centres undefined), the Activity (Hepatitis C virus [1]) is reported as “inactive”, the CC50 [2] is reported as over 25 µM and the EC50 (Hepatitis C virus [3]) is reported as 0.067 µM. For the same molecule, the “Ratio EC50” value (Hepatitis C virus [6]) was 5.
`O=C(c1cn2c(ccc3c(C(F)(F)F)cc(C(F)(F)F)nc32)n1)N1CCOCC1` showed a CC50 [2] of over 25 µM and an EC50 (Hepatitis C virus [3]) of over 20 µM.
For `COC(=O)C1CCN(C(=O)c2cn3c(ccc4c(C(F)(F)F)cc(C(F)(F)F)nc43)n2)CC1`, the CC50 [2] was over 25 µM and the EC50 (Hepatitis C virus [3]) was 12.7 µM.
With `CNCCN(C)C(=O)c1cn2c(ccc3c(C(F)(F)F)cc(C(F)(F)F)nc32)n1` the Activity (Hepatitis C virus [1]) was “inactive”, the CC50 [2] was over 25 µM and the EC50 (Hepatitis C virus [3]) was 0.02 µM. For the same molecule, the “Ratio EC50” value (Hepatitis C virus [6]) was 5.
For `FC(F)(F)c1cc(C(F)(F)F)c2ccc3nc(-c4nnco4)cn3c2n1`, the EC50 (Hepatitis C virus [7]) was 0.203 µM, the Activity (Huh-7 [8]) was “Active” and the Activity (Huh-7 [9]) was “Active”. The Activity (Hepatitis C virus [1]) was “Active”, the Activity (HepG2) was “Active” and the Activity (Vero) was “Active”.
`O=C(c1cn2c(ccc3c(C(F)(F)F)cc(C(F)(F)F)nc32)n1)N1CCCC1CO` (centres undefined) showed a CC50 [2] of over 25 µM and an EC50 (Hepatitis C virus [3]) of 16.6 µM.
Molecule `Nc1ccc(NC(=O)c2cn3c(ccc4c(C(F)(F)F)cc(C(F)(F)F)nc43)n2)cc1` has a CC50 [2] of over 25 µM and an EC50 (Hepatitis C virus [3]) of over 20 µM.
Work on `COC(=O)C1CCCN(C(=O)c2cn3c(ccc4c(C(F)(F)F)cc(C(F)(F)F)nc43)n2)C1` (centres undefined) yielded a CC50 [2] of over 25 µM and an EC50 (Hepatitis C virus [3]) of 2.54 µM.
With `NC1CCCCC1NC(=O)c1cn2c(ccc3c(C(F)(F)F)cc(C(F)(F)F)nc32)n1` (centres undefined) the Activity (Hepatitis C virus [1]) was “inactive”, the CC50 [2] was over 25 µM and the EC50 (Hepatitis C virus [3]) was 0.048 µM. The “Ratio EC50” value (Hepatitis C virus [6]) was 5.
With `O=C(c1cn2c(ccc3c(C(F)(F)F)cc(C(F)(F)F)nc32)n1)N1CCNCC1` the Activity (Hepatitis C virus [1]) was “inactive”, the CC50 [2] was over 25 µM and the EC50 (Hepatitis C virus [3]) was 0.046 µM. The “Ratio EC50” value (Hepatitis C virus [6]) was 5.
`Nc1ccccc1NC(=O)c1cn2c(ccc3c(C(F)(F)F)cc(C(F)(F)F)nc32)n1` gave a CC50 [2] of over 25 µM and an EC50 (Hepatitis C virus [3]) of over 20 µM.
`NCCCNC(=O)c1cn2c(ccc3c(C(F)(F)F)cc(C(F)(F)F)nc32)n1` showed a CC50 [2] of over 25 µM and an EC50 (Hepatitis C virus [3]) of 1.3 µM.
For `NCCNC(=O)c1cn2c(ccc3c(C(F)(F)F)cc(C(F)(F)F)nc32)n1`, the Tmax [10] was 2.17 h, the AUC(0-t) at 24 h [11] was 19 µM·h and the inhibition (Hepatitis C virus [4]) was “Active”. The EC50 [12] was over 20 µM, the CC50 [13] was over 20 µM and the Activity (Huh-7 [8]) was “inactive”. The CC50 [14] was over 20 µM, the EC50 (Enterovirus A71) was over 20 µM and the Cmax [15] was 2050 nM. The Activity (Huh-7 [9]) was “inactive”, the Activity (Hepatitis C virus [1]) was “inactive” and the CC50 [2] was over 25 µM. For the same molecule, the inhibition at 0.2 µM (Hepatitis C virus [16]) was 90%, the Activity (HepG2) was “inactive” and the half-life [17] was 2.93 h. The EC50 (Hepatitis B virus) was over 20 µM, the EC50 (Hepatitis C virus [3]) was 0.017 µM and the EC50 [18] was over 20 µM. For the same molecule, the “Ratio EC50” value (Hepatitis C virus [6]) was 5, the CC50 [19] was over 20 µM and the Activity (Vero) was “inactive”. For the same molecule, the CC50 [20] was over 20 µM, the AUC(0-inf) [21] was 19.1 µM·h and the inhibition (Hepatitis C virus [22]) was “Active”.
For `O=C(c1cn2c(ccc3c(C(F)(F)F)cc(C(F)(F)F)nc32)n1)N1CCC(CO)CC1`, the CC50 [2] was over 25 µM and the EC50 (Hepatitis C virus [3]) was over 20 µM.
With `NC1CCN(C(=O)c2cn3c(ccc4c(C(F)(F)F)cc(C(F)(F)F)nc43)n2)C1` (centres undefined) the Activity (Hepatitis C virus [1]) was “inactive”, the CC50 [2] was over 25 µM and the EC50 (Hepatitis C virus [3]) was 0.021 µM. For the same molecule, the “Ratio EC50” value (Hepatitis C virus [6]) was 5.
`COC(=O)CN1CCN(C(=O)c2cn3c(ccc4c(C(F)(F)F)cc(C(F)(F)F)nc43)n2)CC1` gave a CC50 [2] of over 25 µM and an EC50 (Hepatitis C virus [3]) of 13.2 µM.
